Data published in patent US20250221966A1, “RXFP1 AGONISTS” (BRISTOL-MYERS SQUIBB COMPANY, priority 2021, published 2025).

The compounds below were run against T1, human RXFP1 (Homo sapiens, UniProt Q9HBX9) (assay: RXFP1 cAMP assay (hRXFP1 HEK293 cAMP assay, HTRF)). Conditions: HEK293 cells stably expressing human RXFP1, 30 min at room temperature, read-out: cAMP hRXFP1 HEK293 Assay EC50.
T1 construct: expressed in transfected cells
T1 sequence (Q9HBX9 1-757): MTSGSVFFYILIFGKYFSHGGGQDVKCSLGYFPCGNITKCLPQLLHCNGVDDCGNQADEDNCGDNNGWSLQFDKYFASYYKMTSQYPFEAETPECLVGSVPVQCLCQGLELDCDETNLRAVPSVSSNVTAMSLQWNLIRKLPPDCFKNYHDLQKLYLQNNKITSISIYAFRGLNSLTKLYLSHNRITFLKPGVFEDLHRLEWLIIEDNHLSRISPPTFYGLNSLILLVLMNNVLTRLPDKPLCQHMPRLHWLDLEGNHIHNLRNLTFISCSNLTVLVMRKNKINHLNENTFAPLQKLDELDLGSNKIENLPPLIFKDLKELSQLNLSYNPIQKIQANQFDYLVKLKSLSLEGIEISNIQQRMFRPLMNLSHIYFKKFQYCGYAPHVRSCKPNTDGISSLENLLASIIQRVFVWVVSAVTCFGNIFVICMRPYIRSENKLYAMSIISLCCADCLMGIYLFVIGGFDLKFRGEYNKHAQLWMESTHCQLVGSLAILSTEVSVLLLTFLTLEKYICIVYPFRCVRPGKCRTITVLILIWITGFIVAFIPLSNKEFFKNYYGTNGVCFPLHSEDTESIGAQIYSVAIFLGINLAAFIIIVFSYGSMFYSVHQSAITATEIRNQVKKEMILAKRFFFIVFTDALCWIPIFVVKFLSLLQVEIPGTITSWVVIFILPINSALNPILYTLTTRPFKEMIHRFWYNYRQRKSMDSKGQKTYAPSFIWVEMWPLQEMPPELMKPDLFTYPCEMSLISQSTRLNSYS
Format: cell-based
Method in brief: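 Intracellular cAMP was read by HTRF, with potency fitted to a 4-parameter logistic curve. Compound exposure (0.010 nM–50 μM final, 2% DMSO) lasted 30 min at room temperature. Cells were hRXFP1-HEK293 at 1500 per well in IBMX-containing (0.5 mM) HEPES-buffered HBSS.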

Row | SMILES | EC50 [nM]
1 | COc1ccc(C2=NOC3COCC23)cc1C(=O)N[C@@H]1C2CCC(/C2=C/C2CC2)[C@@H]1C(=O)Nc1ccc(F)c(C(F)(F)F)c1 (some centres unmarked) [compound 418] | 170
2 | COc1ccc(-c2cc(CO)ccc2F)cc1C(=O)N[C@@H]1C2CCC(/C2=C/c2cnoc2)[C@@H]1C(=O)Nc1ccc(F)c(C(F)(F)F)c1 (some centres unmarked) [compound 176] | 57
3 | COc1ccc(-c2cc(C3=NOC(CO)C3)ccc2F)cc1C(=O)N[C@H]1[C@@H](C(=O)Nc2ccc(F)c(C(F)(F)F)c2)[C@H]2CC[C@@H]1/C2=C\C1CC1 (some centres unmarked) [compound 906] | 6.8
4 | COc1ccc(-c2cc(C(=O)N3CC[C@@H](O)C3)on2)cc1C(=O)N[C@H]1[C@@H](C(=O)Nc2ccc(F)c(C(F)(F)F)c2)[C@H]2CC[C@@H]1/C2=C\C1CC1 [compound 617] | 153
5 | COc1ccc(-c2cc(C(=O)NCC(=O)O)ccc2F)cc1C(=O)N[C@@H]1C2CCC(C2=C(C)C)[C@@H]1C(=O)Nc1ccc(F)c(C(F)(F)F)c1 (some centres unmarked) [compound 193] | 300
6 | COc1ccc(C2=NOC3CC(CO)CC23)cc1C(=O)N[C@H]1[C@@H](C(=O)NC2(C)CCCC2)[C@H]2CC[C@@H]1/C2=C\C1CC1 (some centres unmarked) [compound 466] | 3.9
7 | COc1c(F)cc(C2=NOC3CC(CO)CC23)cc1C(=O)N[C@H]1[C@@H](C(=O)N[C@H](C)C2(C)CC2)[C@H]2CC[C@@H]1/C2=C\C1CC(F)(F)C1 (some centres unmarked) [compound 813] | 1
8 | COc1ccc(-c2cc([C@@H](C)O)on2)cc1C(=O)N[C@H]1[C@@H](C(=O)Nc2ccc(F)c(C(F)(F)F)c2)[C@H]2CC[C@@H]1/C2=C\C1CC1 [compound 500] | 11
9 | COc1ccc(C2=NOC3COCC23)cc1C(=O)N[C@H]1[C@@H](C(=O)NCc2ccc(Cl)cc2Cl)[C@H]2CC[C@@H]1/C2=C\C1CC1 (some centres unmarked) [compound 646] | 240
10 | COc1ccc(C2=NOC3(C2)CC(CO)C3)cc1C(=O)N[C@H]1[C@@H](C(=O)Nc2ccc(F)c(C(F)(F)F)c2)[C@H]2CC[C@@H]1/C2=C\C1CC1 (some centres unmarked) [Example 511] | 15.3
11 | COc1ccc(-c2cc(C(=O)N3CCC(O)CC3)on2)cc1C(=O)N[C@H]1[C@@H](C(=O)Nc2ccc(F)c(C(F)(F)F)c2)[C@H]2CC[C@@H]1/C2=C\C1CC1 [Example 594] | 91.4
12 | COc1ccc(-c2cnn3c2CC(O)CC3)cc1C(=O)N[C@H]1[C@@H](C(=O)N[C@@H](C)C2(C)CC2)[C@H]2CC[C@@H]1/C2=C\C1CC1 (some centres unmarked) [compound 871] | 4.8
13 | C=C/C=C1\C2CCC1[C@H](C(=O)Nc1ccc(F)c(C(F)(F)F)c1)[C@@H]2NC(=O)c1cc(-c2cc(C(=O)O)ccc2F)ccc1OC (some centres unmarked) [compound 158] | 100
14 | COc1ccc(C2=NOC3COCC23)cc1C(=O)N[C@H]1[C@@H](C(=O)NCc2cccc(Cl)c2Cl)[C@H]2CC[C@@H]1/C2=C\C1CC1 (some centres unmarked) [compound 582] | 74.9
15 | CN(C)c1ccc(C2=NOC3COCC23)cc1C(=O)N[C@H]1[C@@H](C(=O)Nc2ccc(F)c(C(F)(F)F)c2)[C@H]2CC[C@@H]1/C2=C\C(F)(F)F (single isomer, unassigned) [compound 518] | 18.4
16 | COc1ccc(C2=NO[C@@H]3C[C@H](CO)CN23)cc1C(=O)N[C@H]1[C@@H](C(=O)Nc2ccc(F)c(C(F)(F)F)c2)[C@H]2CC[C@@H]1/C2=C\C1CC1 [compound 846] | 1.8
17 | COc1ccc(C2=NOC3CC(CO)CC23)cc1C(=O)N[C@H]1[C@@H](C(=O)Nc2ccc(F)c(C(F)(F)F)c2)[C@H]2CC[C@@H]1/C2=C\c1cnc(C)s1 (some centres unmarked) [compound 804] | 4
18 | COc1ccc(C2=NOC3COCC23)cc1C(=O)N[C@H]1[C@@H](C(=O)NCC2(C)CCC2)[C@H]2CC[C@@H]1/C2=C\C1CC1 (some centres unmarked) [compound 477] | 6.4

Row | SMILES | EC50 [nM]
19 | CCC(NC(=O)[C@@H]1[C@H](NC(=O)c2cc(C3=NOC4COCC34)ccc2OC)[C@@H]2CC[C@H]1/C2=C/C1CC1)c1ccccc1C (single isomer, unassigned) [compound 652] | 278
20 | COc1ccc(C2=NOC(C3(O)CCC3)C2)cc1C(=O)N[C@H]1[C@@H](C(=O)Nc2ccc(F)c(C(F)(F)F)c2)[C@H]2CC[C@@H]1/C2=C\C1CC1 (single isomer, unassigned) [compound 515] | 17.2
21 | COc1ccc(C2=NOC(C(=O)O)C2)cc1C(=O)N[C@@H]1C2CCC(/C2=C/C2CCC2)[C@@H]1C(=O)Nc1ccc(F)c(C(F)(F)F)c1 (some centres unmarked) [compound 388] | 152
22 | CNC(=O)c1ccc(F)c(-c2ccc(OC)c(C(=O)N[C@@H]3C4CCC(/C4=C/c4cnoc4)[C@@H]3C(=O)Nc3ccc(F)c(C(F)(F)F)c3)c2)c1 (some centres unmarked) [compound 165] | 40
23 | COc1ccc(-c2cc(C(F)(F)F)ccc2F)cc1C(=O)N[C@@H]1C2CCC(/C2=C/C2CC2)[C@@H]1C(=O)Nc1ccc(F)c(C(F)(F)F)c1 (some centres unmarked) [compound 286] | 5
24 | COc1ccc(-c2cc([C@H](OC(=O)NC3CC3)C(F)(F)F)ccc2F)cc1C(=O)N[C@H]1[C@@H](C(=O)Nc2ccc(F)c(C(F)(F)F)c2)[C@H]2CC[C@@H]1/C2=C\CC(C)C [compound 929] | 1.6
25 | CNC(=O)C(OC(=O)Nc1ccccc1)c1ccc(F)c(-c2ccc(OC)c(C(=O)N[C@@H]3C4CCC(/C4=C/C4CC4)[C@@H]3C(=O)Nc3ccc(F)c(C(F)(F)F)c3)c2)c1 (some centres unmarked) [compound 237] | 2
26 | COc1ccc(C2=NO[C@H]3COC[C@@H]23)cc1C(=O)N[C@H]1[C@@H](C(=O)Nc2ccc(F)c(C(F)(F)F)c2)[C@H]2CC[C@@H]1/C2=C\CC1CCC1 [compound 829] | 3.4
27 | COc1ccc(-c2cc(C(O)C(=O)O)ccc2F)cc1C(=O)NC1C2CCC(/C2=C/C2CCC2)C1C(=O)Nc1ccc(F)c(C(F)(F)F)c1 (centres unmarked) [compound 356] | 5
28 | COc1ccc(-c2c(C)noc2C)cc1C(=O)N[C@H]1[C@@H](C(=O)Nc2ccc(F)c(C(F)(F)F)c2)[C@H]2CC[C@@H]1C2=C(C)C [compound 104] | 1600
29 | COc1ccc(C2=NOC3COCC23)cc1C(=O)N[C@H]1[C@@H](C(=O)N[C@H](C)C2CCC2)[C@H]2CC[C@@H]1/C2=C\C1CC1 (some centres unmarked) [compound 507] | 12.9
30 | COc1ccc(C2CC3COCC32)cc1C(=O)N[C@H]1[C@@H](C(=O)Nc2ccc(F)c(C(F)(F)F)c2)[C@H]2CC[C@@H]1/C2=C\C1CC1 (stereo partly drawn) [Example 725, (1R,2S,3R,4R,Z)-3-(5-(3-oxabicyclo[3.2.0]heptan-6-yl)-2-methoxybenzamido)-7-(cyclopropylmethylene)-N-(4-fluoro-3-(trifluoromethyl)phenyl)bicyclo[2.2.1]heptane-2-carboxamide] | 360
31 | COc1ccc(-c2cc(OC(F)(F)F)ccc2F)cc1C(=O)N[C@@H]1C2CCC(/C2=C/C2CC2)[C@@H]1C(=O)Nc1ccc(F)c(C(F)(F)F)c1 (some centres unmarked) [compound 285] | 7
32 | COc1ccc(-c2cc(C(OC(=O)N3CCC3)C(F)(F)F)ccc2F)cc1C(=O)N[C@@H]1C2CCC(/C2=C/C2CC2)[C@@H]1C(=O)Nc1ccc(F)c(C(F)(F)F)c1 (some centres unmarked) [compound 216] | 2
33 | COc1ccc(C2=NOC3CC(O)(C(F)(F)F)CC23)cc1C(=O)N[C@H]1[C@@H](C(=O)N[C@H](C)C2(C)CC2)[C@H]2CC[C@@H]1/C2=C\C1CC1 (some centres unmarked) [compound 859] | 1.8
34 | COc1ccc(-c2cc(C(NC(=O)C(F)(F)F)C(=O)O)ccc2F)cc1C(=O)N[C@@H]1C2CCC(/C2=C/C(F)(F)F)[C@@H]1C(=O)Nc1ccc(F)c(C(F)(F)F)c1 (some centres unmarked) [compound 241] | 3
35 | COc1ccc(-c2cc(C(OC(C)=O)C(=O)O)ccc2F)cc1C(=O)N[C@@H]1C2CCC(/C2=C/c2cnoc2)[C@@H]1C(=O)Nc1ccc(F)c(C(F)(F)F)c1 (some centres unmarked) [Example 178] | 11
